Laboratory results reported in patent publication US20260000729A1, “COMBINATION THERAPIES FOR TREATMENT OF CANCER” (The Regents of the University of Michigan, priority 2022, published 2026).

How the values were obtained:
PC3-luc cells [1] = test: Intratibial PC3-luc tumor growth in SCID mice, checked weekly by BLI; assay type: in vivo; conditions: BAL 20 mg/kg s.c. twice daily, DOC 5 mg/kg i.p. once a week, weeks 1-4, combination p=0.009
Description: Methods: 59 severe combined immunodeficiency (SCID) mice received intratibial injection with PC3-luc cells (2×10^4 cells in 20 ul). Balixafortide (20 mg/kg) (BAL) and vehicle were injected subcutaneously twice daily starting on day one and Docetaxel (5 mg/kg) (DOC) was injected intraperitoneal once a week starting on day one. The tumor growth in mouse tibia was checked weekly by BLI.

PC3-luc cells [2] = test: Radiograph of injected tibia at necropsy: bone degradation and percent osteolytic area; assay type: in vivo, mice; conditions: proximal third of tibia, no significant differences among the groups
Description: After 30 days, at the time of necropsy, tumor growth in mouse tibia was checked by radiograph and mice were sacrificed, and serum and bone were collected. Serum was kept at −80° C. and tibia were stored in 10% buffered formalin at room temperature for 48 hours before being stored at 4° C.
Radiographic images were imported into SketchandCalc software. The proximal third of the tibia was traced to calculate its area and defined as total area, then osteolytic areas were traced to calculate the total osteolytic area (FIG. 3A) and the percent osteolytic area/bone area was calculated.

Row | Compound | tumor growth / total tumor burden in mouse tibia (BLI) (PC3-luc cells [1]) | percent osteolytic area/bone area (mean) (PC3-luc cells [2])
1 | CC(=O)O[C@@]12CO[C@@H]1C[C@H](O)[C@@]1(C)C(=O)[C@H](O)C3=C(C)[C@@H](OC(=O)[C@H](O)[C@@H](NC(=O)OC(C)(C)C)c4ccccc4)C[C@@](O)([C@@H](OC(=O)c4ccccc4)[C@H]21)C3(C)C [Docetaxel, (2R,3S)—N-carboxy-3-phenylisoserine,N-tert-butylester, 13 ester with 5ß-20-epoxy-1,2a,4,78,10B,13a-hexahydroxytax-11-en-9-one 4-acetate 2 benzoate] | neither BAL nor DOC impacted tumor growth as sole agents | lower than vehicle or Balixafortide
2 | cyclo(-Tyr-His-Ala-Cys-Ser-Ala-^DPro-Dab-Arg-Tyr-Cys-Tyr-Gln-Lys-^DPro-Pro-) having a disulfide bond between Cys4 and Cys11 [Balixafortide] | neither BAL nor DOC impacted tumor growth as sole agents | no significant differences among the groups
